The values that follow are results of earlier work, collected in patent EP3628310A1, “PHARMACEUTICAL COMPOSITION COMPRISING SOLID DISPERSIONS OF AMORPHOUS CLADRIBINE AND PHARMACEUTICALLY ACCEPTABLE WATER SOLUBLE CARRIER” (Synbias Pharma AG, priority 2018, dated 2020).

Where two headings read alike, the source gives them in different places.

For the molecule `Nc1nc(Cl)nc2c1ncn2[C@H]1C[C@H](O)[C@@H](CO)O1` [Tablet 2-CdA, 2-chloro-2'-deoxyadenosine], the “calculated half time T1/2” value was 22.2 min (pH 1, 37°C) and 96 min (pH 2, 37°C). For the setting “pH 1, after 2 h of heating to 37°C”, the 2-CdA content was 2%. The “2-CdA remains in solution” value (pH 2, 37°, after 6 h) is 13%.
